Data reported in patent US20060167109A1, “Methods of reducing rhinovirus contagion and related compositions” (priority 2002, published 2006).

Key:
[1] = tested on: 10 other human viral pathogens; test: Antiviral specificity, viral cytopathic effect assays; type: cell-based
HRV serotype 29 = test: HRV cytopathic effect assay; type: cell-based; settings: Human rhinovirus sp.
Protocol: (§1) For sensitivity testing to pleconaril, the appropriate cells were seeded into 96 well plates at a concentration of 4×10^4/well. After an overnight incubation at 37° C., the medium was removed and the cells were infected with 150 μL of a dilution of virus previously titrated to give ≧85% lysis of the monolayer after 3 days of incubation. The plates were incubated for 1 hour at the appropriate temperature and then overlaid with 50 μL of medium containing serial 2-fold dilutions of pleconaril in 2% DMSO. The final DMSO concentration in the assay was always 0.5%. No virus and no pleconaril controls were included on each plate. All drug concentrations were run in quadruplicate. The plates were then incubated for 3 days at the appropriate temperature followed by processing as described above.

HRV serotype 91 = test: HRV cytopathic effect assay; type: cell-based; settings: Human rhinovirus sp.
Protocol: as §1

HRV serotype 59 = test: HRV cytopathic effect assay; type: cell-based; settings: Human rhinovirus sp.
Protocol: as §1

HRV serotype 69 = test: HRV cytopathic effect assay; type: cell-based; settings: Human rhinovirus sp.
Protocol: as §1

HRV serotype 64 = test: HRV cytopathic effect assay; type: cell-based; settings: Human rhinovirus sp.
Protocol: as §1

HRV serotype 83 = test: HRV cytopathic effect assay; type: cell-based; settings: Human rhinovirus sp.
Protocol: as §1

HRV serotype 57 = test: HRV cytopathic effect assay; type: cell-based; settings: Human rhinovirus sp.
Protocol: as §1

HRV serotype 88 = test: HRV cytopathic effect assay; type: cell-based; settings: Human rhinovirus sp.
Protocol: as §1

HRV serotype 36 = test: HRV cytopathic effect assay; type: cell-based; settings: Human rhinovirus sp.
Protocol: as §1

HRV serotype 25 = test: HRV cytopathic effect assay; type: cell-based; settings: Human rhinovirus sp.
Protocol: as §1

HRV serotype 70 = test: HRV cytopathic effect assay; type: cell-based; settings: Human rhinovirus sp.
Protocol: as §1

HRV serotype 79 = test: HRV cytopathic effect assay; type: cell-based; settings: Human rhinovirus sp.
Protocol: as §1

HRV serotype 98 = test: HRV cytopathic effect assay; type: cell-based; settings: Human rhinovirus sp.
Protocol: as §1

HRV serotype 27 = test: HRV cytopathic effect assay; type: cell-based; settings: Human rhinovirus sp.
Protocol: as §1

HRV serotype 10 = test: HRV cytopathic effect assay; type: cell-based; settings: Human rhinovirus sp.
Protocol: as §1

HRV serotype 12 = test: HRV cytopathic effect assay; type: cell-based; settings: Human rhinovirus sp.
Protocol: as §1

HRV serotype 47 = test: HRV cytopathic effect assay; type: cell-based; settings: Human rhinovirus sp.
Protocol: as §1

HRV serotype 17 = test: HRV cytopathic effect assay; type: cell-based; settings: Human rhinovirus sp.
Protocol: as §1

HRV serotype 84 = test: HRV cytopathic effect assay; type: cell-based; settings: Human rhinovirus sp.
Protocol: as §1

HRV serotype 19 = test: HRV cytopathic effect assay; type: cell-based; settings: Human rhinovirus sp.
Protocol: as §1

HRV serotype 39 = test: HRV cytopathic effect assay; type: cell-based; settings: Human rhinovirus sp.
Protocol: as §1

HRV serotype 23 = test: HRV cytopathic effect assay; type: cell-based; settings: Human rhinovirus sp.
Protocol: as §1

HRV serotype 67 = test: HRV cytopathic effect assay; type: cell-based; settings: Human rhinovirus sp.
Protocol: as §1

HRV serotype 60 = test: HRV cytopathic effect assay; type: cell-based; settings: Human rhinovirus sp.
Protocol: as §1

HRV serotype 92 = test: HRV cytopathic effect assay; type: cell-based; settings: Human rhinovirus sp.
Protocol: as §1

HRV serotype 40 = test: HRV cytopathic effect assay; type: cell-based; settings: Human rhinovirus sp.
Protocol: as §1

HRV serotype 50 = test: HRV cytopathic effect assay; type: cell-based; settings: Human rhinovirus sp.
Protocol: as §1

HRV serotype 90 = test: HRV cytopathic effect assay; type: cell-based; settings: Human rhinovirus sp.
Protocol: as §1

[2] = Rat tissue distribution studies; type: in vivo; settings: estimated
Protocol: A 400 mg dose of pleconaril maintains antiviral concentrations at or above the concentration that inhibits 90% of the protoype HRV serotypes (90% Minimal Inhibitory Concentration or mic90) for a significant portion of the dosing interval after the first dose of pleconaril. A nasal tissue to plasma concentration ratio of five was estimated for pleconaril from rat tissue distribution studies.

HRV, four serotypes = test: Virus yield reduction assay, single cycle of growth; type: cell-based, human rhinovirus; settings: all four viruses, nontoxic drug concentrations, MOI 1, 12 hours
Protocol: To assess the inhibition by pleconaril of HRV production from a single cycle of virus replication, virus yield experiments were performed. Cells were infected at a multiplicity of infection (MOI) of 1 infectious virion per cell with virus that had been pre-treated with pleconaril at various drug concentrations. After 12 hours of infection (a single replication cycle), the amount of virus produced was quantified. Pleconaril inhibited virus production in a concentration dependent manner. The yield of progeny virus was reduced by >99% for all four viruses at nontoxic drug concentrations.
Virus was pretreated with various concentrations of pleconaril for 1 hour at 4° C. Confluent, 1-day-old monolayers of Hela (WIS) cells in 6 well plates were infected with virus at a multiplicity of infection (MOI) of approximately 1 plaque-forming unit per cell. After a 1 hour attachment period at 33° C., the inoculum was removed, the monolayers were washed 3 times with Dulbeccos modified phosphate buffer (DPBS)(JRH Biosciences, Lenexa, Kans.) and overlaid with 3 ml of media containing either the appropriate concentration of pleconaril or drug solvent (0.25% DMSO) alone. Incubation was continued for 12 hours at 33° C. and 2.5% CO2. All plates were frozen/thawed 3 times at −80° C. prior to quantification of virus yield in the virus cytopathic effect assay.

SMILES: Cc1cc(CCCOc2c(C)cc(-c3noc(C(F)(F)F)n3)cc2C)on1 [pleconaril, 3-[3,5-dimethyl-4-[3-(3-methyl-5-isoxazolyl)propoxy]phenyl]-5-(trifluoromethyl)-1,2,4-oxadiazole]
- activity against unrelated viruses [1]: no activity
- IC50 ([1]; Homo sapiens, all ten viruses): > 12500 nM
- IC50 (HRV serotype 29): 270 ± 70 nM
- IC50 (HRV serotype 91): 730 ± 390 nM
- IC50 (HRV serotype 59): 780 ± 340 nM
- IC50 (HRV serotype 69): 6770 ± 3140 nM
- IC50 (HRV serotype 64): 320 ± 240 nM
- IC50 (HRV serotype 83): 20 ± 10 nM
- IC50 (HRV serotype 57): 170 ± 50 nM
- IC50 (HRV serotype 88): 100 ± 40 nM
- IC50 (HRV serotype 36): 110 ± 20 nM
- IC50 (HRV serotype 25): 100 ± 10 nM
- IC50 (HRV serotype 70): 300 ± 190 nM
- IC50 (HRV serotype 79): 40 ± 60 nM
- IC50 (HRV serotype 98): 1800 ± 1620 nM
- IC50 (HRV serotype 27): 5900 ± 1900 nM
- IC50 (HRV serotype 10): 130 ± 50 nM
- IC50 (HRV serotype 12): 390 ± 120 nM
- IC50 (HRV serotype 47): 10 nM
- IC50 (HRV serotype 17): 230 ± 80 nM
- IC50 (HRV serotype 84): > 12500 nM
- IC50 (HRV serotype 19): 200 ± 10 nM
- IC50 (HRV serotype 39): 10 nM
- IC50 (HRV serotype 23): 320 ± 10 nM
- IC50 (HRV serotype 67): 250 ± 110 nM
- IC50 (HRV serotype 60): 480 ± 140 nM
- IC50 (HRV serotype 92): 20 ± 10 nM
- IC50 (HRV serotype 40): 70 ± 30 nM
- IC50 (HRV serotype 50; HRV50, Table 2, mean of at least two independent determinations): 350 ± 70 nM
- IC50 (HRV serotype 50; serotype 50): 350 ± 70 nM
- IC50 (HRV serotype 90): 190 ± 60 nM
- nasal tissue to plasma concentration ratio [2]: five
- reduction of yield of progeny virus (HRV, four serotypes): > 99%
